# Experimental data reported in ChEMBL document CHEMBL6182833, “Design, synthesis and antiviral evaluation of triazole-linked 7-hydroxycoumarin-monoterpene conjugates as inhibitors of RSV replication” (RSC Med Chem, 2025).
# Tested on: HEp-2
# Test: Cytotoxicity against human HEp-2 cells assessed as cell growth inhibition measured after 24 hrs by MTT assay
# Type: functional
# Conditions: not given
row,Compound,CC50 [µM]
1,Cc1cc(=O)oc2cc(OCc3cn(CC4=CC[C@@H]5C[C@H]4C5(C)C)nn3)ccc12,22.2
2,Cc1cc(=O)oc2cc(OCC3=CC[C@@H]4C[C@H]3C4(C)C)ccc12,116
3,CC(C)=CCCC(C)=CCn1cc(COc2ccc3c4c(c(=O)oc3c2)CCC4)nn1,19.1
4,CC1(C)[C@@H]2CC=C(COc3ccc4c5c(c(=O)oc4c3)CCCC5)[C@H]1C2,380
5,CC1(C)[C@@H]2CC=C(COc3ccc4c5c(c(=O)oc4c3)CCC5)[C@H]1C2,416
6,Cc1cc(=O)oc2cc(OCc3cn(CC4=CC[C@H]5C[C@@H]4C5(C)C)nn3)ccc12,14.3
7,CC1(C)[C@@H]2CC=C(Cn3cc(COc4ccc5c6c(c(=O)oc5c4)CCCC6)nn3)[C@H]1C2,25.5
8,NC(=O)c1ncn([C@@H]2O[C@H](CO)[C@@H](O)[C@H]2O)n1 [RIBAVIRIN],> 4100
9,CC1(C)[C@H]2CC=C(Cn3cc(COc4ccc5c6c(c(=O)oc5c4)CCC6)nn3)[C@@H]1C2,278
10,CC(C)=CCC/C(C)=C/Cn1cc(COc2ccc3c(C)cc(=O)oc3c2)nn1,15
11,CC1(C)[C@@H]2CC=C(Cn3cc(COc4ccc5c6c(c(=O)oc5c4)CCC6)nn3)[C@H]1C2,52.7
12,CC(C)=CCCC(C)=CCn1cc(COc2ccc3c(-c4ccccc4)cc(=O)oc3c2)nn1,12.3
13,Cc1cc(=O)oc2cc(OCC3=CC[C@H]4C[C@@H]3C4(C)C)ccc12,796
14,CC1(C)[C@H]2CC=C(Cn3cc(COc4ccc5c(-c6ccccc6)cc(=O)oc5c4)nn3)[C@@H]1C2,13.7
15,CC(C)CCCC(C)CCn1cc(COc2ccc3c(-c4ccccc4)cc(=O)oc3c2)nn1 (stereo not drawn),14.6

# Tested on: not listed separately
# Test: Selectivity index, ratio of CC50 for human HEp-2 cells to IC50 for Respiratory syncytial virus type B infected in human HEp-2 cells
# Type: cell-based
# Conditions: read-out: Ratio CC50/IC50
row,Compound,selectivity ratio
1,Cc1cc(=O)oc2cc(OCc3cn(CC4=CC[C@@H]5C[C@H]4C5(C)C)nn3)ccc12,2.9
2,Cc1cc(=O)oc2cc(OCC3=CC[C@@H]4C[C@H]3C4(C)C)ccc12,24.7
3,CC(C)=CCCC(C)=CCn1cc(COc2ccc3c4c(c(=O)oc3c2)CCC4)nn1,2.9
4,CC1(C)[C@@H]2CC=C(COc3ccc4c5c(c(=O)oc4c3)CCCC5)[C@H]1C2,78.2
5,CC1(C)[C@@H]2CC=C(COc3ccc4c5c(c(=O)oc4c3)CCC5)[C@H]1C2,81.6
6,Cc1cc(=O)oc2cc(OCc3cn(CC4=CC[C@H]5C[C@@H]4C5(C)C)nn3)ccc12,2
7,CC1(C)[C@@H]2CC=C(Cn3cc(COc4ccc5c6c(c(=O)oc5c4)CCCC6)nn3)[C@H]1C2,7.2
8,CC1(C)[C@H]2CC=C(Cn3cc(COc4ccc5c6c(c(=O)oc5c4)CCC6)nn3)[C@@H]1C2,1.1
9,CC(C)=CCC/C(C)=C/Cn1cc(COc2ccc3c(C)cc(=O)oc3c2)nn1,1.8
10,CC1(C)[C@@H]2CC=C(Cn3cc(COc4ccc5c6c(c(=O)oc5c4)CCC6)nn3)[C@H]1C2,7.3
11,CC(C)=CCCC(C)=CCn1cc(COc2ccc3c(-c4ccccc4)cc(=O)oc3c2)nn1,1.1
12,Cc1cc(=O)oc2cc(OCC3=CC[C@H]4C[C@@H]3C4(C)C)ccc12,3.3
13,CC1(C)[C@H]2CC=C(Cn3cc(COc4ccc5c(-c6ccccc6)cc(=O)oc5c4)nn3)[C@@H]1C2,8.5
14,CC(C)CCCC(C)CCn1cc(COc2ccc3c(-c4ccccc4)cc(=O)oc3c2)nn1 (stereo not drawn),2.8

# Tested on: not listed separately
# Test: Selectivity index, ratio of CC50 for human HEp-2 cells to IC50 for Respiratory syncytial virus type A infected in human HEp-2 cells
# Type: cell-based
# Conditions: read-out: Ratio CC50/IC50
row,Compound,selectivity ratio
1,Cc1cc(=O)oc2cc(OCc3cn(CC4=CC[C@@H]5C[C@H]4C5(C)C)nn3)ccc12,3.3
2,Cc1cc(=O)oc2cc(OCC3=CC[C@@H]4C[C@H]3C4(C)C)ccc12,90
3,CC(C)=CCCC(C)=CCn1cc(COc2ccc3c4c(c(=O)oc3c2)CCC4)nn1,3.3
4,CC1(C)[C@@H]2CC=C(COc3ccc4c5c(c(=O)oc4c3)CCCC5)[C@H]1C2,77
5,CC1(C)[C@@H]2CC=C(COc3ccc4c5c(c(=O)oc4c3)CCC5)[C@H]1C2,100
6,Cc1cc(=O)oc2cc(OCc3cn(CC4=CC[C@H]5C[C@@H]4C5(C)C)nn3)ccc12,2.2
7,CC1(C)[C@@H]2CC=C(Cn3cc(COc4ccc5c6c(c(=O)oc5c4)CCCC6)nn3)[C@H]1C2,6.3
8,CC1(C)[C@H]2CC=C(Cn3cc(COc4ccc5c6c(c(=O)oc5c4)CCC6)nn3)[C@@H]1C2,0.4
9,CC(C)=CCC/C(C)=C/Cn1cc(COc2ccc3c(C)cc(=O)oc3c2)nn1,2.5
10,CC1(C)[C@@H]2CC=C(Cn3cc(COc4ccc5c6c(c(=O)oc5c4)CCC6)nn3)[C@H]1C2,7.6
11,CC(C)=CCCC(C)=CCn1cc(COc2ccc3c(-c4ccccc4)cc(=O)oc3c2)nn1,37
12,Cc1cc(=O)oc2cc(OCC3=CC[C@H]4C[C@@H]3C4(C)C)ccc12,27.4
13,CC1(C)[C@H]2CC=C(Cn3cc(COc4ccc5c(-c6ccccc6)cc(=O)oc5c4)nn3)[C@@H]1C2,> 88
14,CC(C)CCCC(C)CCn1cc(COc2ccc3c(-c4ccccc4)cc(=O)oc3c2)nn1 (stereo not drawn),3.5

# Tested on: Human orthopneumovirus
# Test: Antiviral activity against Respiratory syncytial virus type A infected in human HEp-2 cells assessed as inhibition of viral replication preincubated with cells followed by viral infection for 1 hr followed by virus washout and further incubated with compound for 6 days by ELISA method
# Type: functional, organism-based
# Conditions: read-out: IC50
row,Compound,IC50 [µM]
1,Cc1cc(=O)oc2cc(OCc3cn(CC4=CC[C@@H]5C[C@H]4C5(C)C)nn3)ccc12,6.6
2,Cc1cc(=O)oc2cc(OCC3=CC[C@@H]4C[C@H]3C4(C)C)ccc12,1.3
3,CC(C)=CCCC(C)=CCn1cc(COc2ccc3c4c(c(=O)oc3c2)CCC4)nn1,5.7
4,CC1(C)[C@@H]2CC=C(COc3ccc4c5c(c(=O)oc4c3)CCCC5)[C@H]1C2,5.1
5,CC1(C)[C@@H]2CC=C(COc3ccc4c5c(c(=O)oc4c3)CCC5)[C@H]1C2,4.1
6,Cc1cc(=O)oc2cc(OCc3cn(CC4=CC[C@H]5C[C@@H]4C5(C)C)nn3)ccc12,6.4
7,CC1(C)[C@@H]2CC=C(Cn3cc(COc4ccc5c6c(c(=O)oc5c4)CCCC6)nn3)[C@H]1C2,4.1
8,NC(=O)c1ncn([C@@H]2O[C@H](CO)[C@@H](O)[C@H]2O)n1 [RIBAVIRIN],31.1
9,CC1(C)[C@H]2CC=C(Cn3cc(COc4ccc5c6c(c(=O)oc5c4)CCC6)nn3)[C@@H]1C2,629
10,CC(C)=CCC/C(C)=C/Cn1cc(COc2ccc3c(C)cc(=O)oc3c2)nn1,6.1
11,CC1(C)[C@@H]2CC=C(Cn3cc(COc4ccc5c6c(c(=O)oc5c4)CCC6)nn3)[C@H]1C2,6.9
12,CC(C)=CCCC(C)=CCn1cc(COc2ccc3c(-c4ccccc4)cc(=O)oc3c2)nn1,0.3
13,Cc1cc(=O)oc2cc(OCC3=CC[C@H]4C[C@@H]3C4(C)C)ccc12,29
14,CC1(C)[C@H]2CC=C(Cn3cc(COc4ccc5c(-c6ccccc6)cc(=O)oc5c4)nn3)[C@@H]1C2,< 0.2
15,CC(C)CCCC(C)CCn1cc(COc2ccc3c(-c4ccccc4)cc(=O)oc3c2)nn1 (stereo not drawn),4.1

# Same assay, conditions: read-out: pIC50 (converted)
row,Compound,IC50 [µM]
1,CC(C)=CCCC(C)=CCn1cc(COc2ccc3c4c(c(=O)oc3c2)CCC4)nn1,5.75
2,CC1(C)[C@@H]2CC=C(COc3ccc4c5c(c(=O)oc4c3)CCCC5)[C@H]1C2,6.17
3,CC1(C)[C@@H]2CC=C(Cn3cc(COc4ccc5c6c(c(=O)oc5c4)CCCC6)nn3)[C@H]1C2,4.07
4,CC(C)=CCC/C(C)=C/Cn1cc(COc2ccc3c(C)cc(=O)oc3c2)nn1,6.17
5,CC(C)=CCCC(C)=CCn1cc(COc2ccc3c(-c4ccccc4)cc(=O)oc3c2)nn1,5.75
6,CC(C)CCCC(C)CCn1cc(COc2ccc3c(-c4ccccc4)cc(=O)oc3c2)nn1 (stereo not drawn),1.66

# Tested on: Human orthopneumovirus
# Test: Antiviral activity against Respiratory syncytial virus type B infected in human HEp-2 cells assessed as inhibition of viral replication preincubated with cells followed by viral infection for 1 hr followed by virus washout and further incubated with compound for 6 days by ELISA method
# Type: functional, organism-based
# Conditions: not given
row,Compound,EC50 [µM]
1,CC1(C)[C@@H]2CC=C(COc3ccc4c5c(c(=O)oc4c3)CCC5)[C@H]1C2,5.1

# Same assay, conditions: read-out: IC50
row,Compound,IC50 [µM]
1,Cc1cc(=O)oc2cc(OCc3cn(CC4=CC[C@@H]5C[C@H]4C5(C)C)nn3)ccc12,7.6
2,Cc1cc(=O)oc2cc(OCC3=CC[C@@H]4C[C@H]3C4(C)C)ccc12,4.7
3,CC(C)=CCCC(C)=CCn1cc(COc2ccc3c4c(c(=O)oc3c2)CCC4)nn1,6.5
4,CC1(C)[C@@H]2CC=C(COc3ccc4c5c(c(=O)oc4c3)CCCC5)[C@H]1C2,4.9
5,Cc1cc(=O)oc2cc(OCc3cn(CC4=CC[C@H]5C[C@@H]4C5(C)C)nn3)ccc12,7
6,CC1(C)[C@@H]2CC=C(Cn3cc(COc4ccc5c6c(c(=O)oc5c4)CCCC6)nn3)[C@H]1C2,3.5
7,NC(=O)c1ncn([C@@H]2O[C@H](CO)[C@@H](O)[C@H]2O)n1 [RIBAVIRIN],54.5
8,CC1(C)[C@H]2CC=C(Cn3cc(COc4ccc5c6c(c(=O)oc5c4)CCC6)nn3)[C@@H]1C2,256
9,CC(C)=CCC/C(C)=C/Cn1cc(COc2ccc3c(C)cc(=O)oc3c2)nn1,8.2
10,CC1(C)[C@@H]2CC=C(Cn3cc(COc4ccc5c6c(c(=O)oc5c4)CCC6)nn3)[C@H]1C2,7.2
11,CC(C)=CCCC(C)=CCn1cc(COc2ccc3c(-c4ccccc4)cc(=O)oc3c2)nn1,11.3
12,Cc1cc(=O)oc2cc(OCC3=CC[C@H]4C[C@@H]3C4(C)C)ccc12,241
13,CC1(C)[C@H]2CC=C(Cn3cc(COc4ccc5c(-c6ccccc6)cc(=O)oc5c4)nn3)[C@@H]1C2,1.6
14,CC(C)CCCC(C)CCn1cc(COc2ccc3c(-c4ccccc4)cc(=O)oc3c2)nn1 (stereo not drawn),5.2

# Same assay, conditions: read-out: pIC50 (converted)
row,Compound,IC50 [µM]
1,CC(C)=CCCC(C)=CCn1cc(COc2ccc3c4c(c(=O)oc3c2)CCC4)nn1,6.46
2,CC(C)=CCC/C(C)=C/Cn1cc(COc2ccc3c(C)cc(=O)oc3c2)nn1,0.151
3,CC(C)=CCCC(C)=CCn1cc(COc2ccc3c(-c4ccccc4)cc(=O)oc3c2)nn1,11.2
4,CC(C)CCCC(C)CCn1cc(COc2ccc3c(-c4ccccc4)cc(=O)oc3c2)nn1 (stereo not drawn),0.229
